This is an account of results in patent US5723496A, “Method for prevention and treatment of harmful effects of intracellular acidosis” (priority 1995, dated 1998).

Values joined by “and” are separate entries in the source; they are usually repeats but may differ in a detail not shown here. Equal values may be shown once. “Also recorded” adds a separate entry of the source.

The conditions of data set [1]: cited from earlier work.
Data set [2] can be described thus: observation of behavior and respiratory pattern. Type of data set: in vivo, Adult Swiss mice. The settings on record: mouse, in vivo, ip. An excerpt:
(§1) Adult Swiss mice (BK-1 male 20 g) purchased from Bantin & Kingman, Fremont, Calif., were used. Each batch consisted of 15 mice. Within each batch, five mice were selected randomly to be in the GES, taurine, or control group. A taurine group was included to serve as additional control.

For data set [3], the system named is adult mice exposed to anoxia. The data set can be described thus: survival of adult mice exposed to anoxia. The arrangement: mortality, 2.5 minutes of anoxia / protection against 2.5 minutes anoxia: concentration or dose not given beside the values. Type of data set: in vivo, Adult Swiss mice. The procedure: Adult Swiss mice (BK-1 males, 20 g) purchased from Bantin & Kingman, Fremont, Calif. were used. Each batch consisted of 10 mice. Within each batch five mice were selected randomly as experimental animals and the remaining five as controls. Experimental mice received daily intraperitoneal injections of 0.25 ml of GES (50 mg/ml) for 14 days.
At day 14, all mice within the same batch (5 experimental and 5 each of the […]) were placed in a specially designed chamber (26.5×24.5×21.0 cm). Anoxia/hypoxia was produced by infusion of pure nitrogen gas ([…]) into the chamber for 2.5 or 2.75 minutes. Anoxia/hypoxia was reversed immediately after these intervals by removing the chamber and placing the mice in a room air environment.
The results are shown in FIG. 1 and discussed in detail above.

In data set [4] the test system is brains of newborn rat pups. Briefly: brain intracellular pH and lactate of rat pups before and after 7.5 min anoxia (in vivo NMR). The arrangement: species or system Sprague-Dawley rats. As to the method:
A Nicolet NMR System NT-200 (4.7T) was used for NMR experiments. Mice, rats or pups (Sprague-Dawley) were lightly anesthetized with ketamine hydrochloride, 50 mg/kg I.P., and placed in the NMR probe which contained an oval surface coil (one turn, 8×12 mm diameter) tunable to the resonance frequency of the proton and ^31 P. To eliminate signal contamination, scalp and temporal muscle were retracted. Field homogeneity was maximized by skimming on water proton signals. To produce anoxia, 100% nitrogen gas was rapidly infused (14 l/min) into the probe chamber. Anoxia could be reversed by infusion of air. Calibration studies using an oxygen meter (OM-1 Biological oxygen Meter, Micro-electrodes, Inc.) confirmed that this technique produced complete O2 depletion in the chamber or its reversal within 1 minute. ^1 H spectra were obtained at 199.97 MHz=z using a 1331-.tau.-2662 spin echo sequence with a .tau. delay of 68 ms (spectral width: 2 KHz, memory block: 4K, recycle time 2.7 seconds). The interpulse delay of the Hore sequence was adjusted so that the lactate resonance experienced least attenuation. ^31 P spectra were obtained at 80.99 MHz using a one pulse sequence (spectral width: 6 KHz, memory block: 4K, recycle time 2.7 seconds). The free induction decay (FID) like signals from remaining water proton signals were eliminated by applying sine function […]. The broad resonance with short T2 on ^31 P NMR spectra was removed using the convolution difference technique. Line broadening of 5 Hz and 30 Hz were applied as noise filter for proton and ^31 P spectra, respectively.
These animals were designated to be the experimental group. Physiological saline was administered to the control group of rats. Each group consisted of 10 animals.
On the last day of the administration, i.e. at day 10, the animals were each fixed in a special chamber set within a 4.7 T nuclear magnetic resonance apparatus. […]
The pH level and the lactate concentration in the cerebral cells before and after anoxia were measured by nuclear magnetic resonance spectroscopy using the procedure described above.

Data set [5] deals with anaerobic glycolysis. The data set can be described thus: brain lactate after 2.5 min anoxia. Format: in vivo, Adult Swiss mice. As to the method:
as §1
Brain lactate levels were determined for mice exposed to 2.5 minutes of anoxia as follows. Animals were exposed to 2.5 minutes of anoxia under pentobarbital anesthesia. Immediately after the exposure, animals were immersed into a liquid nitrogen. The frozen brains were removed by chiseling and extracted as described above. Lactate concentration was determined using the lactate dehydrogenase reaction.

The conditions of data set [6]: in vivo; cited from earlier work.
On the set-up of data set [7]: species or system Adult Swiss mice. The conditions noted are these: mouse, in vivo. As to the method:
as §1
Arterial blood gas sample was collected by puncture of the lower portion of the descending aorta under pentobarbital anesthesia. Analysis was performed on a Corning 168 Blood Gas Analyzer.

Consider `Nc1ncnc2c1ncn2[C@@H]1O[C@H](COP(=O)(O)OP(=O)(O)OP(=O)(O)O)[C@@H](O)[C@H]1O` [adenosine triphosphate (ATP), adenosine triphosphate], for which the pKa value in data set [1] is listed as 6.95.
As to `NCCS(=O)(=O)O` [taurine, 2-amineethanesulfonic acid, reference compound], the “observable adverse effects in behavior or respiratory pattern” value in data set [2] is “did not show any observable adverse effects”. For the same compound, the “protection against anoxia / survival (in words)” value in data set [3] was “no difference between taurine pretreated animals (column B) and saline pretreated animal”. Moreover, in data set [3] (14 days i.p. pretreatment), the “mortality, 2.5 minutes of anoxia” value was 40% and 60%. In addition, in data set [3] (FIG. 1), the “protection against 2.5 minutes anoxia” value was 40%. The “effect on pH depression in anoxia (in words)” value in data set [4] is “pH depression is considerably prevented”. The “brain pH after anoxia” value in data set [4] (taurine 16 mmol/kg/day i.p., after 7.5 min anoxia) amounted to 7.0. Further, in data set [4] (taurine 16 mmol/kg/day i.p., day 10), the “brain pH before anoxia” value is 7.3. The Lactate in data set [5] (Table 4, n = 5, post 2.5 min anoxia) is reported as 0.48 ± 0.08 mM. Besides, the “lactate levels post 2.5 min anoxia (in words)” value in data set [5] (among three groups) is on record as “essentially identical among the three groups”. Further, the “blood-brain barrier crossing (in words)” value in data set [6] was “does not cross the blood-brain barrier in adult mice; also recorded: does not cross the blood brain barrier freely in the adult mouse; also recorded: does cross the blood-brain barrier in newborns but it has no such effect in the adults”. In data set [7], the “arterial pCO2” value stood at 41.26 ± 5.39 mmHg, the “arterial pH” value is reported as 7.26 ± 0.04 and the “arterial pO2” value is recorded as 97.7 ± 12.9 mmHg.
In the case of `O=S(=O)(O)CCN1CCOCC1` [MES, 2-(N-morpholino) ethane sulfonic acid, reference compound], the pKa value in data set [1] is reported as 6.1.
